# According to patent publication US20250000786A1, “SENOTHERAPY COMPOSITION CONTAINING CAMELLIA SINENSIS EXTRACT” (AMOREPACIFIC CORPORATION, priority 2023, published 2025):
# What was measured:
# [1] = test system: senescent human fibroblasts; assay: Cell death by CCK-8 in senescence-induced fibroblasts; type: cell-based; settings: 72 hours
# Procedure: Human fibroblasts were cultured in a 6-well plate culture medium. Senescent cells were prepared by inducing senescence by culturing the fibroblasts in DMEM (containing 10% FBS) medium containing doxorubicin (100 ng/ml) and insulin-like growth factor 1 (IGF-1) (100 ng/ml) for 4 days. Then, the same medium was treated with a positive control material (ABT737, 1-10 uM) and the tea tree root extract (50-150 ppm) and cultured for 72 hours. The ABT737 is a Bcl-2 inhibitor and a representative senolytic. Young cells were treated with experimental materials in DMEM medium without inducing senescence and cultured for 72 hours. In order to confirm the senolytic efficacy of the treatment with the tea tree root extract, the medium was replaced with a medium diluted 1/100 with Cell counting kit-8 (CCK-8, dojindo), cultured for 1 hour, and then the absorbance was measured at 540 nm. Human fibroblasts were cultured in a 6-well plate culture medium. […] In order to confirm the senolytic efficacy of the material treated with the tea tree root extract, the medium was replaced with a medium diluted 1/100 with Cell counting kit-8 (CCK-8, dojindo), cultured for 1 hour, and then the absorbance was measured at 540 nm.
# young human fibroblasts = assay: Cell death by CCK-8 in young fibroblasts; type: cell-based; settings: concentration of 50 ppm or higher, 72 hours
# Procedure: Human fibroblasts were cultured in a 6-well plate culture medium. Senescent cells were prepared by inducing senescence by culturing the fibroblasts in DMEM (containing 10% FBS) medium containing doxorubicin (100 ng/ml) and insulin-like growth factor 1 (IGF-1) (100 ng/ml) for 4 days. Then, the same medium was treated with a positive control material (ABT737, 1-10 uM) and the tea tree root extract (50-150 ppm) and cultured for 72 hours. The ABT737 is a Bcl-2 inhibitor and a representative senolytic. Young cells were treated with experimental materials in DMEM medium without inducing senescence and cultured for 72 hours.
# In order to confirm the senolytic efficacy of the treatment with the tea tree root extract, the medium was replaced with a medium diluted 1/100 with Cell counting kit-8 (CCK-8, dojindo), cultured for 1 hour, and then the absorbance was measured at 540 nm.
# Human fibroblasts were cultured in a 6-well plate culture medium. […]
# In order to confirm the senolytic efficacy of the material treated with the tea tree root extract, the medium was replaced with a medium diluted 1/100 with Cell counting kit-8 (CCK-8, dojindo), cultured for 1 hour, and then the absorbance was measured at 540 nm.
compound,measurement,setting,value
"O=C(O[C@@H]1Cc2c(O)cc(O)cc2O[C@@H]1c1cc(O)c(O)c(O)c1)c1cc(O)c(O)c(O)c1 [EGCG, epigallocatechin gallate]",killing senescent cells in fibroblasts,[1],no effect
same,cytotoxicity on young cells,young human fibroblasts,showed cytotoxicity
